Measured values reported in patent publication US20130131321A1, “LIGANDS FOR ANTIBODY AND Fc-FUSION PROTEIN PURIFICATION BY AFFINITY CHROMATOGRAPHY” (GRAFFINITY PHARMACEUTICALS GMBH, priority 2010, published 2013).
Read-outs that look alike come from different tables or passages of the source.

Columns and labels:
Bevacizumab [1] = target: T1, Bevacizumab (Homo sapiens, UniProt P01857); experiment: Microtiter plate chromatography of resins, Bevacizumab whole IgG (bound, yield, selectivity); format: binding, humanized
T1 construct: fused on or other part: humanised anti-VEGF-A VH domain N-terminal of the gamma-1 constant region (engineered, no UniProt entry)

Bevacizumab [2] = experiment: as above; format: binding, humanized
Tocilizumab = experiment: Microtiter plate chromatography of resins, Tocilizumab (bound, yield); format: binding, humanized
Palivizumab = experiment: Microtiter plate chromatography of resins, Palivizumab (bound, yield); format: binding, humanized
[3] = system: human poly-IgG (h-poly-IgG); experiment: Microtiter plate chromatography of resins, human poly-IgG (bound, yield); format: binding
host cell proteins (HCP) = experiment: Microtiter plate chromatography of resins, host cell proteins (bound); format: binding, CHO
[4] = fraction of injected whole IgG bound to resin
[5] = mass eluted / mass injected, whole IgG
[6] = bound Bevacizumab whole IgG / bound HCP, truncated beyond values of 10
[7] = fraction of injected protein bound to resin
[8] = fraction of injected host cell proteins bound to resin
[9] = fraction of whole IgG Bevacizumab bound to resin
[10] = mass of whole IgG Bevacizumab eluted / mass injected

| Structure (SMILES) | Bevacizumab IgG Bound (%) (Bevacizumab [1]; [4]) | Bevacizumab IgG Yield (%) (Bevacizumab [1]; [5]) | Selectivity (Bevacizumab [2]; [6]) | Tocilizumab Bound (%) (Tocilizumab; [7]) | Tocilizumab Yield (%) (Tocilizumab; mass eluted / mass injected) | Palivizumab Bound (%) (Palivizumab; [7]) | Palivizumab Yield (%) (Palivizumab; mass eluted / mass injected) | h-poly-IgG Bound (%) [3, 7] [%] | h-poly-IgG Yield (%) ([3]; mass eluted / mass injected) | HCP Bound (%) (host cell proteins (HCP); [8]) | Bevacizumab IgG Bound (%) (Bevacizumab [1]; [9]) | Bevacizumab IgG Yield (%) (Bevacizumab [1]; [10]) | Selectivity (Bevacizumab [2]) | Tocilizumab Bound (%) (Tocilizumab) | Tocilizumab Yield (%) (Tocilizumab) | Palivizumab Bound (%) (Palivizumab) | Palivizumab Yield (%) (Palivizumab) | h-poly-IgG Bound (%) [3] [%] | h-poly-IgG Yield (%) [3] [%] | HCP Bound (%) (host cell proteins (HCP); host cell proteins) |
| --- | --- | --- | --- | --- | --- | --- | --- | --- | --- | --- | --- | --- | --- | --- | --- | --- | --- | --- | --- | --- |
| COc1ccc(NC(=O)c2cn3ccsc3n2)cc1C(=O)NCCOCCOCC(=O)NCCCN [Ligand L77, 8-[5-(Imidazo-[2,1-b]thiazol-6-ylcarboxamido)-2-methoxyphenylcarboxamido]-3,6-dioxaoctanoic acid (3-amino-1-propyl)amide] | 100 | 96 | 10.0 | 80 | 80 | 55 | 55 | 65 | 65 | 10 |  |  |  |  |  |  |  |  |  |  |
| COc1ccc(NC(=O)c2cc(-c3ccco3)ccn2)cc1C(=O)NCCCN [Ligand L52, 5-[4-(2-Furyl)pyridin-2-ylcarboxamido]-2-methoxybenzoic acid (3-amino-1-propyl)amide] |  |  |  |  |  |  |  |  |  |  | 100 | 99 | 2.4 | 100 | 100 | 100 | 83 | 100 | 100 | 41 |
| NCCCNC(=O)c1cccc(C(=O)Nc2ncc(-c3ccccc3)s2)c1 [Ligand L74, Isophthalic acid N-(3-aminopropyl)-N′-(5-phenylthiazol-2-yl)amide] | 100 | 96 |  | 97 | 91 | 88 | 86 | 91 | 90 | 53 |  |  | 1.9 |  |  |  |  |  |  |  |
| NCCCNC(=O)c1cccc(C(=O)Nc2nc(-c3ccccc3)cs2)c1 [Ligand L73, Isophthalic acid N-(3-aminopropyl)-N′-(4-phenylthiazol-2-yl)amide] | 100 | 92 |  | 97 | 95 | 87 | 87 | 92 | 87 | 52 |  |  | 1.9 |  |  |  |  |  |  |  |
| COc1ccc(C(=O)Nc2nn(C)c3ccccc23)cc1C(=O)NCCCN [Ligand L39, 5-[N-(1-Methylindazol-3-yl)carbamoyl]-2-methoxybenzoic acid (3-amino-1-propyl)amide] |  |  |  |  |  |  |  |  |  |  | 100 | 100 | 2.9 | 100 | 100 | 100 | 100 | 100 | 100 | 35 |
| COc1ccc(NC(=O)c2cc3ncccn3n2)cc1C(=O)NCCCN [Ligand L56, 2-Methoxy-5-(pyrazolo[1,5-a]pyrimidin-2-ylcarboxamido)benzoic acid (3-amino-1-propyl)amide] |  |  |  |  |  |  |  |  |  |  | 100 | 95 | 4.9 | 95 | 95 | 81 | 79 | 83 | 83 | 21 |
| COc1ccc(NC(=O)c2cncc(-c3ccc(C(F)(F)F)cc3)c2)cc1C(=O)NCCCN [Ligand L12, 2-Methoxy-5-{3-[4-(trifluoromethyl)phenyl]pyridin-5-yl}carboxamidobenzoic acid N-(3-aminopropyl)amide] |  |  |  |  |  |  |  |  |  |  | 100 | 50 | 1.6 | 61 | 49 | 52 | 41 | 68 | 37 | 63 |
| COc1ccc(NC(=O)c2cn3ccsc3n2)cc1C(=O)NCCOCCOCC(=O)NCCOCCOCC(=O)NCCCN [Ligand L66, 8-{8-[5-(Imidazo[2,1-b]thiazol-6-ylcarboxamido)-2-methoxyphenylcarboxamido]-3,6-dioxaoctanoylamido}-3,6-dioxaoctanoic acid (3-amino-1-propyl)amide] | 100 | 100 | 10.0 | 54 | 53 | 41 | 27 | 46 | 46 | 0 |  |  |  |  |  |  |  |  |  |  |
| COc1ccc(NC(=O)c2cc(-c3ccco3)n(C)n2)cc1C(=O)N(C)CCCN [Ligand L28, 5-[5-(2-Furyl)-1-methylpyrazol-3-yl]carboxamido-2-methoxybenzoic acid N-(3-aminopropyl)-N-methylamide] |  |  |  |  |  |  |  |  |  |  | 100 | 81 | 2.9 | 63 | 61 | 55 | 50 | 58 | 44 | 35 |
| COc1ccc(NC(=O)c2nnc(-c3ccco3)o2)cc1C(=O)NCCOCCOCC(=O)NCCOCCOCC(=O)NCCCN [Ligand L67, 8-{8-{5-[5-(2-Furyl)-1,3,4-oxadiazol-2-ylcarboxamido]-2-methoxyphenylcarboxamido}-3,6-dioxaoctanoylamido}-3,6-dioxaoctanoic acid (3-amino-1-propyl)amide] | 100 | 100 | 10.0 | 91 | 86 | 81 | 80 | 89 | 87 | 2 |  |  |  |  |  |  |  |  |  |  |
| COc1ccc(NC(=O)c2cc(-c3ccccc3)n(C)n2)cc1C(=O)NCCCN [Ligand L15, 2-Methoxy-5-(1-methyl-5-phenylpyrazol-3-yl)carboxamidobenzoic acid N-(3-aminopropyl)amide] |  |  |  |  |  |  |  |  |  |  | 99 | 94 | 1.6 | 100 | 98 | 100 | 90 | 98 | 83 | 64 |
| COc1ccc(NC(=O)c2cc(C(F)(F)F)n(C)n2)cc1C(=O)NCCCN [Ligand L34, 2-Methoxy-5-[1-methyl-5-(trifluoromethyl)pyrazol-3-yl]carboxamidobenzoic acid N-(3-aminopropyl)amide] |  |  |  |  |  |  |  |  |  |  | 100 | 89 | 2.6 | 85 | 80 | 73 | 72 | 78 | 61 | 39 |
| COc1ccc(-c2noc(C(=O)Nc3ccc(OC)c(C(=O)NCCCN)c3)n2)cc1 [Ligand L54, 2-Methoxy-5-[3-(4-methoxyphenyl)-1,2,4-oxadiazol-5-ylcarboxamido]benzoic acid (3-amino-1-propyl)amide] |  |  |  |  |  |  |  |  |  |  | 100 | 100 | 2.8 | 100 | 100 | 100 | 84 | 100 | 98 | 36 |
| COc1ccc(NC(=O)c2nc3ccccc3[nH]2)cc1C(=O)NCCCN [Ligand L47, 5-(1H-Benzimidazol-2-ylcarboxamido)-2-methoxybenzoic acid (3-amino-1-propyl)amide] |  |  |  |  |  |  |  |  |  |  | 100 | 97 | 2.9 | 100 | 100 | 85 | 85 | 71 | 65 | 35 |
| COc1ccc(NC(=O)c2cc3ccccn3n2)cc1C(=O)NCCCN [Ligand L46, 2-Methoxy-5-(pyrazolo[1,5-a]pyridin-2-ylcarboxamido)benzoic acid (3-amino-1-propyl)amide] |  |  |  |  |  |  |  |  |  |  | 100 | 82 | 5.0 | 100 | 97 | 85 | 85 | 93 | 93 | 20 |
| Cn1nc(NC(=O)c2cccc(C(=O)NCCCN)c2)c2ccccc21 [Ligand L71, Isophthalic acid N-(3-aminopropyl)-N′-(1-methylindazol-3-yl)amide] | 100 | 88 |  | 51 | 49 | 24 | 24 | 45 | 45 | 25 |  |  | 4.0 |  |  |  |  |  |  |  |
